Assay results: US7211428B1, “Strain of Bacillus as a bioinoculant” (Council of Scientific and Industrial Research, priority 2004, dated 2007)

System: geranium cuttings
Test: Root initiation and survival of geranium cuttings after treatment
Assay type: in vivo, Pelargonium graveolens
Parameters: % survivality, Normal / % survivality, Two node / % survivality, Apical: concentration or dose not given beside the values
Conditions: for % survivality, Apical: apical cuttings; for % survivality, Normal: normal cuttings; for % survivality, Two node: two node cuttings
Source text: Geranium cuttings treated with Bacillus strain MTCC-5130, initiated rooting after 22–25 days of treatment, which was 5–7 days earlier than untreated control cuttings.

Substance: Indole butyric acid [IBA]
- Root initiation (days after) (cuttings of Dec. 5, 2001): 28 days
- % survivality, Apical (cuttings of Dec. 5, 2001): 100.0%
- % survivality, Normal (cuttings of Dec. 5, 2001): 100%
- % survivality, Two node (cuttings of Dec. 5, 2001): 100%
- Root initiation (days after) (cuttings of Nov. 20, 2001): 27 days
- % survivality, Apical (cuttings of Nov. 20, 2001): 95.8%
- % survivality, Normal (cuttings of Nov. 20, 2001): 100%
- % survivality, Two node (cuttings of Nov. 20, 2001): 69.2%
